Source: patent publication US20250170132A1, “SALTS AND POLYMORPHIC FORMS OF MENIN INHIBITORS AND PHARMACEUTICAL COMPOSITIONS THEREOF” (Syndax Pharmaceuticals, Inc., priority 2023, published 2025)
Like-named read-outs stand apart in the source and are kept apart here.

What was measured:
[1] = Pharmacokinetics in patients with relapsed or refractory acute leukemia; format: in vivo, human; settings: for Tmax: read-out: Tmax Median; for AUC(0-t): read-out: AUC0-12 h
Excerpt: The pharmacokinetics of Compound A were characterized in patients with relapsed or refractory acute leukemia following single and multiple oral administration of Compound A with or without strong CYP3A4 inhibitors. Steady-state pharmacokinetic parameters are presented as geometric mean [geometric coefficient of variation (% CV)] unless otherwise specified.

[2] = test system: cells harboring MLLr fusions; test: Activity in cells harboring MLLr fusions; format: cell-based
Excerpt: (§1) Menin inhibitor (e.g., Compound A or a pharmaceutically acceptable salt thereof) disrupts the interaction between menin and the MLL1 fusion proteins which is required for leukemogenic activity, thus impairing expression of critical oncogenes, causing growth arrest and the inhibition of cellular proliferation. Small molecule inhibitors of the menin-MLL interaction have been reported.

CYP3A4 = molecular target: T1, CYP3A4 (Homo sapiens, UniProt P08684); test: Drug interaction studies (clinical studies); format: in vivo; settings: for AUC increase / Cmax increase: multiple doses
T1 construct: from tissue
Excerpt: Strong CYP3A4 Inhibitors: Compound A AUC and Cmax is increased by 2-fold following concomitant use of multiple doses of Compound A with certain azole antifungals that are strong CYP3A4 inhibitors (i.e., posaconazole, itraconazole, and voriconazole).

[3] = Aqueous solubility of Compound A salts; format: physicochemical; settings: across the physiological pH range
Experimental: Solubility of Compound A citrate was determined in 3 different types of matrices: unbuffered water, citrate-buffered solutions from pH 3 to 6, and formulations consisting of citrate, advantame, methylparaben sodium, potassium sorbate, and sodium chloride at pH ranging from 3 to 6. Solubility in unbuffered water at ambient temperature was 38.5 mg/mL.
The target pH was reassessed when the F3 formulation was developed. Compound A citrate solubility studies were performed initially in simple buffered solutions to assess solubility trends as a function of pH. […] The target concentration of Compound A was therefore changed to 40 mg/mL as a compromise between drug substance and preservatives dissolution rate and stability.

[4] = Excipient compatibility study with Compound A monocitrate monohydrate; format: physicochemical
Experimental: The list of excipients for this study was restricted to those already being used in the tablet formulation provided in Example 7. OpaDry Orange was further added.
Binary mixtures of Compound A monocitrate monohydrate and each excipient, were placed in closed 20 mL borosilicate glass vials (Tables 45-47). The vials were stored at 25° C./60% RH, 30° C./65% RH, and 40° C./75% RH over 8 weeks and later analyzed using methods for Appearance, Compound A Assay, Related Substances, XRPD, and Differential Scanning calorimetry (DSC).

menin = molecular target: T2, menin (Homo sapiens, UniProt O00255); test: Binding to the MLL1 binding pocket on menin
T2 sequence (O00255 1-610): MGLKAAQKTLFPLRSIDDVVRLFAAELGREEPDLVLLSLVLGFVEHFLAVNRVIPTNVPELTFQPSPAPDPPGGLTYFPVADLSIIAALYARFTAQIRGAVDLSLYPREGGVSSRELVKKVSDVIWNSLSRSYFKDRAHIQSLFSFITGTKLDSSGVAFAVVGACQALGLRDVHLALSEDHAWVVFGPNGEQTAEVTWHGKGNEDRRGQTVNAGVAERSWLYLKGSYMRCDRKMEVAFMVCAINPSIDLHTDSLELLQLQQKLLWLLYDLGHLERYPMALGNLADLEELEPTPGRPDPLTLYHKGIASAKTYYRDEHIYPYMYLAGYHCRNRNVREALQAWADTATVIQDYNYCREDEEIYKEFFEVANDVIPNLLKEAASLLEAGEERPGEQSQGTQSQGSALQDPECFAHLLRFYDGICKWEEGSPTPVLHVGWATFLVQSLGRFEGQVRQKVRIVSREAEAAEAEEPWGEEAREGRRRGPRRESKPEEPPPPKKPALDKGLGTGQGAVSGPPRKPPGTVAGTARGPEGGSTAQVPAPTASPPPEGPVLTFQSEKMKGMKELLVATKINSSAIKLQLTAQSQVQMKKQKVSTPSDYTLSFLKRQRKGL
Excerpt: as §1

[5] = Form C characterization and relative stability of the forms; format: physicochemical; settings: ambient conditions
Excerpt: Moreover, HNMR studies validated a 1:1 stoichiometry between the freebase and acid.

[6] = Slurry and solvent evaporation polymorph experiments of Compound A citrate salt (Table 9); format: physicochemical; settings: upon drying
Experimental: Based on the approximate solubility data of Compound A citrate salt, 18 polymorph experiments were started at RT with stirring (Table 9). Wet cakes from the slurry experiments were analyzed after 5 days of stirring. Wet cake XRPD patterns were checked and materials showing no pattern change were heated from RT to 50° C.
Procedure • 1) Slurry at RT: ˜35 mg citrate salt was slurried in different solvents in 4 mL vials using a magnetic stirrer at RT. The solids in slurry were characterized by XRPD after 3-5 days. • 2) Slurry at 50° C.: Slurries with no change in wet cake XRPD pattern when compared to starting material were heated from RT to 50° C. Samples were analyzed after 2-3 days of stirring.
Wet cake samples were isolated and kept at 25° C. for 2 h for drying. After drying, samples were analyzed by XRPD.

[7] = Polymorph screening of Compound A citrate salt, form conversion (XRPD, DSC/TGA, DVS); format: physicochemical; settings: drying of wet cake (Form B); presence of water (Form C)
[8] = Single crystal structure, solvate exchange under ambient conditions; format: physicochemical; settings: after exposure to ambient conditions, analyzed at 273 K
Experimental: Plate-like crystals (FIG. 9) were grown by recrystallization from methanol of Compound A monocitrate monomethanolate by evaporation (prepared from methanol/water 90:10 v/v).

[9] = test system: NPM1c mutant AML patient-derived xenograft models; settings: orally active menin inhibitor; cited from earlier work
NPM1c cells = settings: cited from earlier work
[10] = 2 pediatric patients, 160 mg/m^2 without strong CYP3A4 inhibitors
[11] = human, plasma, oral, 163 mg twice daily with strong CYP3A4 inhibitors, steady-state, geometric mean
[12] = human, plasma, oral, 276 mg twice daily without strong CYP3A4 inhibitors, steady-state, geometric mean
[13] = low fat meal, approximately 400-500 calories, 25% of calories from fat
[14] = single dose of radiolabeled Compound A 276 mg, adult patients
[15] = with cobicistat (strong CYP3A4 inhibitor)
[16] = with strong CYP3A4 inhibitor azole antifungals (posaconazole, itraconazole, voriconazole)

T1 sequence (P08684 whole entry): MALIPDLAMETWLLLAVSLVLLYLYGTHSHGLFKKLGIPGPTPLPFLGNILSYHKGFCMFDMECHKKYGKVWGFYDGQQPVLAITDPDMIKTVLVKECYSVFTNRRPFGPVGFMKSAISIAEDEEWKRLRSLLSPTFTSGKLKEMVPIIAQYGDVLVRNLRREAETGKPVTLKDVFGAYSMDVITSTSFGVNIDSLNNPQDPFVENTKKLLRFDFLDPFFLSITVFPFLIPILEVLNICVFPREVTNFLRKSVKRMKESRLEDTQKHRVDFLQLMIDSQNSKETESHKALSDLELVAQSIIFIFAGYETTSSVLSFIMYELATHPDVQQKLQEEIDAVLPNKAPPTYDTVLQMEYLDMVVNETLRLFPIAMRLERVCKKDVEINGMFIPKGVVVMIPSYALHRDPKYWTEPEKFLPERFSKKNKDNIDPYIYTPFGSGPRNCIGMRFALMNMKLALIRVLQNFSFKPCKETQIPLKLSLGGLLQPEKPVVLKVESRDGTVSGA

## CCN(C(=O)c1cc(F)ccc1Oc1cncnc1N1CC2(CCN(C[C@H]3CC[C@H](NS(=O)(=O)CC)CC3)CC2)C1)C(C)C [Compound A, trans N-ethyl-2-((4-(7-((4-(ethylsulfonamido)cyclohexyl)methyl)-2,7-diazaspiro[3.5]nonan-2-yl)pyrimidin-5-yl)oxy)-5-fluoro-N-isopropylbenzamide]
[1]; 163 mg twice daily with strong CYP3A4 inhibitors, steady-state, geometric mean
  Apparent Clearance: 7 L/h
[1]; 276 mg twice daily without strong CYP3A4 inhibitors, steady-state, geometric mean
  Apparent Clearance: 27 L/h
[1]; [10]
  AUC0-tau, individual patients: 16300 ng·h/mL
  steady-state Cmax, individual patients: 4790 ng/mL
[1]; dosage range of 113 mg to 339 mg
  Dose Proportionality: Dose proportional increases in Cmax and AUC0-12 h
[1]; higher exposures with lower body weight and BSA
  Effect of body weight and BSA on pharmacokinetics: significant effect
[1]; human, in vivo
  Metabolism: Primary Pathway: CYP3A4
[1]; human, in vivo, independent of concentration, read-out: Protein Binding (converted)
  fraction unbound: 0.1
[1]; human, plasma, oral, 95 mg/m2, pediatric patients, 95 mg/m^2 with strong CYP3A4 inhibitors, read-out: steady-state AUC0-tau, geometric mean (geometric CV %)
  AUC: 14600 ng·h/mL
[1]; human, plasma, oral, 95 mg/m2, pediatric patients, 95 mg/m^2 with strong CYP3A4 inhibitors, read-out: steady-state Cmax, geometric mean (geometric CV %)
  Cmax: 3140 ng/mL
[1]; human, plasma, oral, 160 mg/m2, 2 pediatric patients, 160 mg/m^2 without strong CYP3A4 inhibitors, read-out: AUC0-tau, individual patients
  AUC: 25600 ng·h/mL
[1]; human, plasma, oral, 160 mg/m2, 2 pediatric patients, 160 mg/m^2 without strong CYP3A4 inhibitors, read-out: steady-state Cmax, individual patients
  Cmax: 4950 ng/mL
[1]; human, plasma, oral, 163 mg, 163 mg twice daily with strong CYP3A4 inhibitors, steady-state, geometric mean, patients, read-out: Cmax
  Cmax: 3220 ng/mL
[1]; human, plasma, oral, 276 mg, 276 mg twice daily without strong CYP3A4 inhibitors, steady-state, geometric mean, patients, read-out: Cmax
  Cmax: 2050 ng/mL
[1]; human, plasma, oral, 163 mg twice daily with strong CYP3A4 inhibitors
  Tmax: 2 h
[1]; [11]
  half-life: 7.5 h
  AUC(0-t): 22600 ng·h/mL
[1]; human, plasma, oral, 276 mg twice daily without strong CYP3A4 inhibitors
  Tmax: 1 h
[1]; [12]
  half-life: 3.6 h
  AUC(0-t): 10200 ng·h/mL
[1]; human, plasma, oral, steady-state, geometric mean (% CV), read-out: Apparent Volume of Distribution
  Vd: 78 L
[1]; [13]
  AUC decrease with low fat meal: 12%
  Cmax decrease with low fat meal: 27%
[1]; [14]
  Excretion in Feces: ~49%
  Excretion in Feces, unchanged: 7%
  Excretion in Urine: ~27%
  Excretion in Urine, unchanged: 7%
[1]; steady-state
  Accumulation: 2-fold
[1]; twice daily oral dosing, patients
  Time to Steady-State: 2 to 3 days
[2]
  activity in cells harboring MLLr fusions: displays activity across a range of cells harboring MLLr fusions
CYP3A4; [15]
  AUC increase: 2.5 fold
  Cmax increase: 2.5 fold
CYP3A4; with fluconazole (moderate CYP3A4 inhibitor)
  Differences in pharmacokinetics: No clinically significant differences
CYP3A4; with isavuconazole (moderate CYP3A4 inhibitor)
  Differences in pharmacokinetics: No clinically significant differences
CYP3A4; [16]
  AUC increase: 2 fold
  Cmax increase: 2 fold
[3]
  solubility: high solubility
[4]; 8 week, 25° C./60% RH closed
  Assay (%) Results: 100.3%
[4]; 8 week, 30° C./65% RH closed
  Assay (%) Results: 101.4%
[4]; 8 week, 40° C./75% RH closed
  Assay (%) Results: 100.0%
[4]; Initial (t = 0), closed glass vials
  Assay (%) Results: 98.8%
menin
  binding affinity to the MLL1 binding pocket on menin: high affinity

## CCN(C(=O)c1cc(F)ccc1Oc1cncnc1N1CC2(CCN(C[C@H]3CC[C@H](NS(=O)(=O)CC)CC3)CC2)C1)C(C)C.CO.O=C(O)CC(O)(CC(=O)O)C(=O)O [Form B]
[5]
  Form conversion: transitions to Form A
[6]
  Form conversion: converts to Form A upon drying
[7]
  stability of polymorphic form / conversion: unstable form and converts to Form A upon drying
[8]
  Solvate exchange of single crystal: transformed into a monohydrate

## CNc1nc(NC2CCN(Cc3ccc4c(cc(C#N)n4C[C@H](C)N4CCN(S(C)(=O)=O)CC4)c3C)CC2)c2cc(CC(F)(F)F)sc2n1 [KO-539]
[9]
  anti-leukemic activity: robust anti-leukemic activity

## Cc1c(CN2CCC(Nc3ncnc4sc(CC(F)(F)F)cc34)CC2)ccc2c1cc(C#N)n2Cc1cn[nH]c1 [MI-503]
NPM1c cells
  effect on HOXA/MEIS1 transcription program in NPM1c cells: suppress the HOXA/MEIS1 transcription program in NPM1c cells, leading to growth arrest, terminal differentiation and cell death
